According to ChEMBL document CHEMBL1275440, “In vitro activity of telavancin against resistant gram-positive bacteria” (2008):
Converted amounts (≈) assume the structure as drawn.

Legend:
Format in all cases: functional
Staphylococcus aureus [1] = assay: Antibacterial activity against methicillin resistant Staphylococcus aureus MED 2028 osteomyelitis isolate assessed as bacterial count at 4 ug/ml after 2 hrs by time-kill assay
Staphylococcus aureus [2] = assay: Antibacterial activity against methicillin resistant Staphylococcus aureus MED 2028 osteomyelitis isolate assessed as bacterial count at 2 ug/ml after 24 hrs by time-kill assay
Staphylococcus aureus [3] = assay: Antibacterial activity against methicillin resistant Staphylococcus aureus MED 2028 osteomyelitis isolate assessed as bacterial count at 2 ug/ml after 8 hrs by time-kill assay
Staphylococcus aureus [4] = assay: Antibacterial activity against methicillin resistant Staphylococcus aureus MED 2028 osteomyelitis isolate assessed as bacterial count at 2 ug/ml after 4 hrs by time-kill assay
Staphylococcus aureus [5] = assay: Antibacterial activity against methicillin resistant Staphylococcus aureus MED 2028 osteomyelitis isolate assessed as bacterial count at 1 ug/ml after 8 hrs by time-kill assay
Staphylococcus aureus [6] = assay: Antibacterial activity against methicillin resistant Staphylococcus aureus MED 2028 osteomyelitis isolate assessed as bacterial count at 1 ug/ml after 4 hrs by time-kill assay
Enterococcus faecalis [7] = assay: Antibacterial activity against Enterococcus faecalis ATCC 51575 by broth microdilution method
Staphylococcus aureus [8] = assay: Antibacterial activity against methicillin resistant Staphylococcus aureus MED 1805 bloodstream isolate by broth microdilution method
Staphylococcus aureus [9] = assay: Antibacterial activity against methicillin resistant Staphylococcus aureus MED 2028 osteomyelitis isolate by broth microdilution method
Enterococcus faecium = assay: Antibacterial activity against vancomycin resistant Enterococcus faecium VanB clinical isolate by broth microdilution method
[10] = Antibacterial activity against methicillin resistant coagulase-negative Staphylococcus hominis subsp. novobiosepticus clinical isolate by broth microdilution method
[11] = test system: Staphylococcus haemolyticus; assay: Antibacterial activity against methicillin resistant coagulase-negative Staphylococcus haemolyticus clinical isolate by broth microdilution method
Staphylococcus capitis = assay: Antibacterial activity against methicillin resistant coagulase-negative Staphylococcus capitis clinical isolate by broth microdilution method
Streptococcus pyogenes [12] = assay: Antibacterial activity against Streptococcus pyogenes MED 2040 assessed as bacterial count at […] after 2 hrs by time-kill assay
Streptococcus pyogenes [13] = assay: Antibacterial activity against Streptococcus pyogenes MED 2040 assessed as bacterial count at 0.5 ug/ml after 24 hrs by time-kill assay
Streptococcus pyogenes [14] = assay: Antibacterial activity against Streptococcus pyogenes MED 2040 assessed as bacterial count at 2 ug/ml after 2 hrs by time-kill assay
Streptococcus pyogenes [15] = assay: Antibacterial activity against Streptococcus pyogenes MED 2040 assessed as bacterial count at 2 ug/ml after 8 hrs by time-kill assay
Enterococcus faecalis [16] = assay: Antibacterial activity against Enterococcus faecalis ATCC 51575 assessed as bacterial count at 4 ug/ml after 2 hrs by time-kill assay
Enterococcus faecalis [17] = assay: Antibacterial activity against Enterococcus faecalis ATCC 51575 assessed as bacterial count at 4 ug/ml after 4 hrs by time-kill assay
Enterococcus faecalis [18] = assay: Antibacterial activity against Enterococcus faecalis ATCC 51575 assessed as bacterial count at 8 ug/ml after 2 hrs by time-kill assay
Streptococcus agalactiae [19] = assay: Antibacterial activity against Streptococcus agalactiae MED 2038 assessed as bacterial count at 2 ug/ml after 4 hrs by time-kill assay
Streptococcus agalactiae [20] = assay: Antibacterial activity against Streptococcus agalactiae MED 2038 assessed as bacterial count at […] after 24 hrs by time-kill assay
Streptococcus agalactiae [21] = assay: Antibacterial activity against Streptococcus agalactiae MED 2038 assessed as bacterial count at […] after 8 hrs by time-kill assay
Streptococcus agalactiae [22] = assay: Antibacterial activity against Streptococcus agalactiae MED 2038 assessed as bacterial count at […] after 4 hrs by time-kill assay
Streptococcus pneumoniae [23] = assay: Antibacterial activity against multidrug resistant Streptococcus pneumoniae MED 1090 assessed as bacterial count at 8 ug/ml after 8 hrs by time-kill assay
Streptococcus pneumoniae [24] = assay: Antibacterial activity against multidrug resistant Streptococcus pneumoniae MED 1090 assessed as bacterial count at 2 ug/ml after 24 hrs by time-kill assay
Streptococcus pneumoniae [25] = assay: Antibacterial activity against multidrug resistant Streptococcus pneumoniae MED 1090 assessed as bacterial count at 2 ug/ml after 8 hrs by time-kill assay
Streptococcus pneumoniae [26] = assay: Antibacterial activity against multidrug resistant Streptococcus pneumoniae MED 1090 assessed as bacterial count at 2 ug/ml after 4 hrs by time-kill assay
Streptococcus pneumoniae [27] = assay: Antibacterial activity against multidrug resistant Streptococcus pneumoniae MED 1090 assessed as bacterial count at […] after 2 hrs by time-kill assay
Streptococcus pneumoniae [28] = assay: Antibacterial activity against multidrug resistant Streptococcus pneumoniae MED 1090 assessed as bacterial count at 0.06 ug/ml after 2 hrs by time-kill assay
Streptococcus pneumoniae [29] = assay: Antibacterial activity against multidrug resistant Streptococcus pneumoniae MED 1090 assessed as bacterial count at 0.03 ug/ml after 24 hrs by time-kill assay
[30] = test system: Staphylococcus epidermidis; assay: Antibacterial activity against methicillin resistant Staphylococcus epidermidis ATCC 35984 assessed as bacterial count at 8 ug/ml after 2 hrs by time-kill assay
[31] = test system: Staphylococcus epidermidis; assay: Antibacterial activity against methicillin resistant Staphylococcus epidermidis ATCC 35984 assessed as bacterial count at 4 ug/ml after 24 hrs by time-kill assay
[32] = test system: Staphylococcus epidermidis; assay: Antibacterial activity against methicillin resistant Staphylococcus epidermidis ATCC 35984 assessed as bacterial count at 4 ug/ml after 8 hrs by time-kill assay
[33] = test system: Staphylococcus epidermidis; assay: Antibacterial activity against methicillin resistant Staphylococcus epidermidis ATCC 35984 assessed as bacterial count at 4 ug/ml after 4 hrs by time-kill assay
[34] = test system: Staphylococcus epidermidis; assay: Antibacterial activity against methicillin resistant Staphylococcus epidermidis ATCC 35984 assessed as bacterial count at 2 ug/ml after 2 hrs by time-kill assay
Staphylococcus aureus [35] = assay: Antibacterial activity against methicillin resistant Staphylococcus aureus MED 1805 bloodstream isolate assessed as bacterial count at 16 ug/ml after 24 hrs by time-kill assay
Staphylococcus aureus [36] = assay: Antibacterial activity against methicillin resistant Staphylococcus aureus MED 1805 bloodstream isolate assessed as bacterial count at 4 ug/ml after 24 hrs by time-kill assay
Staphylococcus aureus [37] = assay: Antibacterial activity against methicillin resistant Staphylococcus aureus MED 1805 bloodstream isolate assessed as bacterial count at 2 ug/ml after 2 hrs by time-kill assay
Staphylococcus aureus [38] = assay: Antibacterial activity against methicillin resistant Staphylococcus aureus MED 1805 bloodstream isolate assessed as bacterial count at 1 ug/ml after 24 hrs by time-kill assay
Staphylococcus aureus [39] = assay: Antibacterial activity against methicillin resistant Staphylococcus aureus MED 1805 bloodstream isolate assessed as bacterial count at 1 ug/ml after 8 hrs by time-kill assay
Staphylococcus aureus [40] = assay: Antibacterial activity against methicillin resistant Staphylococcus aureus MED 2028 osteomyelitis isolate assessed as bacterial count at 16 ug/ml after 4 hrs by time-kill assay
Staphylococcus aureus [41] = assay: Antibacterial activity against methicillin resistant Staphylococcus aureus MED 2028 osteomyelitis isolate assessed as bacterial count at 8 ug/ml after 4 hrs by time-kill assay

CCCCCCCCCCNCCN[C@@]1(C)C[C@H](O[C@H]2[C@H](Oc3c4cc5cc3Oc3ccc(cc3Cl)[C@@H](O)[C@@H](NC(=O)[C@@H](CC(C)C)NC)C(=O)N[C@@H](CC(N)=O)C(=O)N[C@H]5C(=O)N[C@H]3C(=O)N[C@H](C(=O)N[C@H](C(=O)O)c5cc(O)c(CNCP(=O)(O)O)c(O)c5-c5cc3ccc5O)[C@H](O)c3ccc(c(Cl)c3)O4)O[C@H](CO)[C@@H](O)[C@@H]2O)O[C@@H](C)[C@H]1O [TELAVANCIN]
log10CFU/ml (Staphylococcus aureus [1]): 0.7 | log10CFU/ml (Staphylococcus aureus [2]): 3.4 | log10CFU/ml (Staphylococcus aureus [3]): 3.1 | log10CFU/ml (Staphylococcus aureus [4]): 1.6 | log10CFU/ml (Staphylococcus aureus [5]): 3.4 | log10CFU/ml (Staphylococcus aureus [6]): 1.3 | MIC (Enterococcus faecalis [7]): 1 µg/mL (≈ 0.57 µM) | MIC (Staphylococcus aureus [8]): 0.5 µg/mL (≈ 0.285 µM) | MIC (Staphylococcus aureus [9]): 0.5 µg/mL (≈ 0.285 µM) | MIC50 (Enterococcus faecium): 0.5 µg/mL (≈ 0.285 µM) | MIC90 (Enterococcus faecium): 2 µg/mL (≈ 1.14 µM) | MIC50 [10]: 0.5 µg/mL (≈ 0.285 µM) | MIC90 [10]: 1 µg/mL (≈ 0.57 µM) | MIC50 [11]: 0.5 µg/mL (≈ 0.285 µM) | MIC90 [11]: 1 µg/mL (≈ 0.57 µM) | MIC50 (Staphylococcus capitis): 0.5 µg/mL (≈ 0.285 µM) | MIC90 (Staphylococcus capitis): 1 µg/mL (≈ 0.57 µM) | log10CFU/ml (Streptococcus pyogenes [12]): 0.7 | log10CFU/ml (Streptococcus pyogenes [13]): 3.1 | log10CFU/ml (Streptococcus pyogenes [14]): 1.8 | log10CFU/ml (Streptococcus pyogenes [15]): 3.1 | log10CFU/ml (Enterococcus faecalis [16]): 0.5 | log10CFU/ml (Enterococcus faecalis [17]): 0.5 | log10CFU/ml (Enterococcus faecalis [18]): 0.2 | log10CFU/ml (Streptococcus agalactiae [19]): 0.8 | log10CFU/ml (Streptococcus agalactiae [20]): 0.6 | log10CFU/ml (Streptococcus agalactiae [21]): 2.3 | log10CFU/ml (Streptococcus agalactiae [22]): 0.8 | log10CFU/ml (Streptococcus pneumoniae [23]): 2.6 | log10CFU/ml (Streptococcus pneumoniae [24]): 3.4 | log10CFU/ml (Streptococcus pneumoniae [25]): 3.4 | log10CFU/ml (Streptococcus pneumoniae [26]): 3 | log10CFU/ml (Streptococcus pneumoniae [27]): 1.1 | log10CFU/ml (Streptococcus pneumoniae [28]): 1 | log10CFU/ml (Streptococcus pneumoniae [29]): 3.4 | log10CFU/ml [30]: 0.5 | log10CFU/ml [31]: 3.3 | log10CFU/ml [32]: 3.2 | log10CFU/ml [33]: 1.8 | log10CFU/ml [34]: 0.2 | log10CFU/ml (Staphylococcus aureus [35]): 3.3 | log10CFU/ml (Staphylococcus aureus [36]): 3.3 | log10CFU/ml (Staphylococcus aureus [37]): 1 | log10CFU/ml (Staphylococcus aureus [38]): 2.7 | log10CFU/ml (Staphylococcus aureus [39]): 3.2 | log10CFU/ml (Staphylococcus aureus [40]): 0.8 | log10CFU/ml (Staphylococcus aureus [41]): 2.2
